Results taken from ChEMBL document CHEMBL5212743, “Selectivity Literature for EUbOPEN Chemogenomics Library wave 3” (2023).

Legend:
[1] = biological target: T1, Gamma-aminobutyric acid receptor subunit alpha-1 (Homo sapiens, UniProt P14867); assay: Selectivity interaction (GPCR panel (PDSP screen)) EUB0000326a GABRA1
T1 sequence (P14867 whole entry): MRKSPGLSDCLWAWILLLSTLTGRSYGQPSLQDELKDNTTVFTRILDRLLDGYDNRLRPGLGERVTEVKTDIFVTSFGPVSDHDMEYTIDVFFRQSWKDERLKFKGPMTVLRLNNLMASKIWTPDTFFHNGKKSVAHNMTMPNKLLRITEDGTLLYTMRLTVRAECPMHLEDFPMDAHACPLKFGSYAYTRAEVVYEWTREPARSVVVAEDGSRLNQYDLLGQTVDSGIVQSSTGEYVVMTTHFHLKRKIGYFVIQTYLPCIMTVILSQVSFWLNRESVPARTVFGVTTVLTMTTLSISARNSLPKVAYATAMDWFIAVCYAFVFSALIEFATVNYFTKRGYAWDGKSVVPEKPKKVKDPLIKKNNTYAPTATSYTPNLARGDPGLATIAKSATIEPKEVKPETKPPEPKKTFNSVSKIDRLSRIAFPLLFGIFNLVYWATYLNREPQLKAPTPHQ

[2] = biological target: T2, Ephrin type-B receptor 6 (Homo sapiens) (UniProt O15197); assay: Selectivity interaction (KinomeScan (DiscoverX)) EUB0000326a EPHB6; conditions: Inhibition of LnCaP-FGC cell proliferation > […] µM (PMID: 28953875);, Selectivity Remarks Screened at 1 µM (in vitro, >[…]-fold less potent then probe A-485), Selectivity Source Knowledge ht
T2 sequence (whole entry): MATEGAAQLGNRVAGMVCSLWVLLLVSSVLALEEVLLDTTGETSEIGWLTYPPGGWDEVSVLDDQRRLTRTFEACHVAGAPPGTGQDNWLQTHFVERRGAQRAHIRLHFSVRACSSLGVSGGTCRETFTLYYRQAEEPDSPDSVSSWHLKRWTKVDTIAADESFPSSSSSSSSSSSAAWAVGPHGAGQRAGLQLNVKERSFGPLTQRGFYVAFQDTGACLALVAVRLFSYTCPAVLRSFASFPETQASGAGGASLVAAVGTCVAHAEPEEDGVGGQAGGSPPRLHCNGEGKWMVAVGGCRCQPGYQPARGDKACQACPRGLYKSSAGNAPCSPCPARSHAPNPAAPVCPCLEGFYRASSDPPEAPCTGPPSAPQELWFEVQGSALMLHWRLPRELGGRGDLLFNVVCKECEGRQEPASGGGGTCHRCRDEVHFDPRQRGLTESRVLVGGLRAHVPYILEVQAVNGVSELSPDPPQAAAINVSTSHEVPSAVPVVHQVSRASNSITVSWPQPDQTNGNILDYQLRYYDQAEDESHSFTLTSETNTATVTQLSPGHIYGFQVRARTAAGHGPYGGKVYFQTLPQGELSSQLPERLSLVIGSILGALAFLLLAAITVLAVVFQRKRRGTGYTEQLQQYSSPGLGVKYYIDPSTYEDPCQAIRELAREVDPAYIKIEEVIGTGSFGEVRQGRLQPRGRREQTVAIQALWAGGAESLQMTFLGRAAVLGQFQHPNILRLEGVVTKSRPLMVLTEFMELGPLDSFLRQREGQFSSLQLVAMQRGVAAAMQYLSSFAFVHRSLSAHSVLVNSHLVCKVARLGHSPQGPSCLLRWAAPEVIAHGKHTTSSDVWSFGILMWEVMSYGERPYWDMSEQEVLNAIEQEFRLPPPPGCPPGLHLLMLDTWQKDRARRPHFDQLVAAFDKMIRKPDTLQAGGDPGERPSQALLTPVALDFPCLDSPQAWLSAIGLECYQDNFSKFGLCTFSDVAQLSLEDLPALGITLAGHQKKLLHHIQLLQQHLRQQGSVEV

[3] = biological target: High affinity nerve growth factor receptor (Homo sapiens, UniProt P04629); assay: Selectivity interaction (KinomeScan (DiscoverX)) EUB0000326a NTRK1; conditions: Inhibition of LnCaP-FGC cell proliferation > […] µM (PMID: 28953875);, Selectivity Remarks Screened at 1 µM (in vitro, >[…]-fold less potent then probe A-485), Selectivity Source Knowledge ht
[4] = biological target: Phosphatidylinositol 4,5-bisphosphate 3-kinase catalytic subunit alpha isoform (Homo sapiens, UniProt P42336); assay: Selectivity interaction (KinomeScan (DiscoverX)) EUB0000326a PIK3CA; conditions: Inhibition of LnCaP-FGC cell proliferation > […] µM (PMID: 28953875);, Selectivity Remarks Screened at 1 µM (in vitro, >[…]-fold less potent then probe A-485), Selectivity Source Knowledge ht
[5] = biological target: Sodium-dependent dopamine transporter (Homo sapiens, UniProt Q01959); assay: Selectivity interaction (Enzyme panel (CEREP ligand profiling)) EUB0000328a SLC6A3; conditions: at 10 µM
[6] = biological target: Sodium-dependent serotonin transporter (Homo sapiens) (UniProt P31645); assay: Selectivity interaction (Enzyme panel (CEREP ligand profiling)) EUB0000328a SLC6A4; conditions: at 10 µM
[7] = biological target: T1, Gamma-aminobutyric acid receptor subunit alpha-1; assay: Selectivity interaction (GPCR panel (PDSP screen)) EUB0000328a GABRA1
[8] = system: Tyrosine-protein kinase ABL1 (Homo sapiens), P00519 [H396P]; assay: Selectivity interaction (KinomeScan (DiscoverX)) EUB0000328a ABL1; conditions: at 1 µM
[9] = biological target: T3, Serine/threonine-protein kinase LATS2 (Homo sapiens) (UniProt Q9NRM7); assay: Selectivity interaction (KinomeScan (DiscoverX)) EUB0000328a LATS2; conditions: at 1 µM
T3 sequence (whole entry): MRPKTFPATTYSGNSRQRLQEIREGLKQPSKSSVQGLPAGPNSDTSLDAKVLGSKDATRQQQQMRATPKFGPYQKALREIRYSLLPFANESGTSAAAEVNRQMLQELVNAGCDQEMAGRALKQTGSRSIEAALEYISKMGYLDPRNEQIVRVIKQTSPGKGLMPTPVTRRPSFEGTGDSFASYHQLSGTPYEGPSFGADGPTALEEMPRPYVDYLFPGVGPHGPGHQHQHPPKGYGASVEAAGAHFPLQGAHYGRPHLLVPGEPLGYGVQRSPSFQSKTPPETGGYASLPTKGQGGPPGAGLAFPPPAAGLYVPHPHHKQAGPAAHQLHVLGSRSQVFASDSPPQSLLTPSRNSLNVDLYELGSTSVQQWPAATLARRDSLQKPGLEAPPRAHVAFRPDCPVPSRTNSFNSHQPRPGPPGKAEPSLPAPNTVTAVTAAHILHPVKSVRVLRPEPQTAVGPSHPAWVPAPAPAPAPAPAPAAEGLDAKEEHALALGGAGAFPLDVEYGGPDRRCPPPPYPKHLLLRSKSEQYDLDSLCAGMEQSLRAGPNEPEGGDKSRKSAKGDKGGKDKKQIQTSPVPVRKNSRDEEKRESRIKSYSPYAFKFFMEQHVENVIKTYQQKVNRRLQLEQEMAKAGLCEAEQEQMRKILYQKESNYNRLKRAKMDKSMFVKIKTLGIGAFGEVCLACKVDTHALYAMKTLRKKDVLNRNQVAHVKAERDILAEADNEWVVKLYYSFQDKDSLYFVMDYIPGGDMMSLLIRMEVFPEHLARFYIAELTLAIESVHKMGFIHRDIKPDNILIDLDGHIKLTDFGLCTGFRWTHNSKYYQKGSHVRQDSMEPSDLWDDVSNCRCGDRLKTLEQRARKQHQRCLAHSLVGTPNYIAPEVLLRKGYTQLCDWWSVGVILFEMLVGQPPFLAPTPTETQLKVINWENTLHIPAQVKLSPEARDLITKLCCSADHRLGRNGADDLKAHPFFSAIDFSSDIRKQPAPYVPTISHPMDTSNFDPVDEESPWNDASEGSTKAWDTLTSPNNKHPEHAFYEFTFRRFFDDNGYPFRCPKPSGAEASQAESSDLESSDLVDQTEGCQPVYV

[10] = biological target: Protein kinase C epsilon type (Homo sapiens) (UniProt Q02156); assay: Selectivity interaction (KinomeScan (DiscoverX)) EUB0000328a PRKCE; conditions: at 1 µM
[11] = biological target: 5-hydroxytryptamine receptor 2B (Homo sapiens, UniProt P41595); assay: Selectivity interaction (GPCR panel (PDSP screen)) EUB0000710a HTR2B
[12] = biological target: T4, Serine/threonine-protein kinase TAO3 (Homo sapiens) (UniProt Q9H2K8); assay: Selectivity interaction (KinomeScan (DiscoverX)) EUB0000710a TAOK3; conditions: at 1 µM
T4 sequence (whole entry): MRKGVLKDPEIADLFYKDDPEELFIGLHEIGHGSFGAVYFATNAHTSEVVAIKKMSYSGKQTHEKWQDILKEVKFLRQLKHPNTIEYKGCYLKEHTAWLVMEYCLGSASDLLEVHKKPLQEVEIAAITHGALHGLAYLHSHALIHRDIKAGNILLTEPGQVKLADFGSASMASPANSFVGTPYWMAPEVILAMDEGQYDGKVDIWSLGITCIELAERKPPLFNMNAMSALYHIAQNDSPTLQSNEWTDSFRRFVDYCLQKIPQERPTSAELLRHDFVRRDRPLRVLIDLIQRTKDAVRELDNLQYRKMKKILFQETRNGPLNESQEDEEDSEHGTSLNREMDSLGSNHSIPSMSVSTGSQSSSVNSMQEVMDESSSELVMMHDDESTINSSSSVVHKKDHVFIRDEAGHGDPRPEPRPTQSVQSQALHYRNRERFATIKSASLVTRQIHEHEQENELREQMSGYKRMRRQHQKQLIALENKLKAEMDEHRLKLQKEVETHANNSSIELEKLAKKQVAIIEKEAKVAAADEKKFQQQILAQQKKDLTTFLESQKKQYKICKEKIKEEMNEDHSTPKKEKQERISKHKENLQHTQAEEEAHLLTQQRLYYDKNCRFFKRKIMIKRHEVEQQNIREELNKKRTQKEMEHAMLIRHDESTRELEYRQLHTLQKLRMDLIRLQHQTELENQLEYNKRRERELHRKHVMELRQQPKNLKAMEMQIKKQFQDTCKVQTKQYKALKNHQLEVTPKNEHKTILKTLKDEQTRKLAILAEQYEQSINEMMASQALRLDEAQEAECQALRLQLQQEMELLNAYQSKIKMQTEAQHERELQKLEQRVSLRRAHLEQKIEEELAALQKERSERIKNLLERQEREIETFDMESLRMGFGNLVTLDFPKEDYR

[13] = biological target: T5, Myosin-IIIb (Homo sapiens) (UniProt Q8WXR4); assay: Selectivity interaction (KinomeScan (DiscoverX)) EUB0000710a MYO3B; conditions: at 1 µM
T5 sequence (whole entry): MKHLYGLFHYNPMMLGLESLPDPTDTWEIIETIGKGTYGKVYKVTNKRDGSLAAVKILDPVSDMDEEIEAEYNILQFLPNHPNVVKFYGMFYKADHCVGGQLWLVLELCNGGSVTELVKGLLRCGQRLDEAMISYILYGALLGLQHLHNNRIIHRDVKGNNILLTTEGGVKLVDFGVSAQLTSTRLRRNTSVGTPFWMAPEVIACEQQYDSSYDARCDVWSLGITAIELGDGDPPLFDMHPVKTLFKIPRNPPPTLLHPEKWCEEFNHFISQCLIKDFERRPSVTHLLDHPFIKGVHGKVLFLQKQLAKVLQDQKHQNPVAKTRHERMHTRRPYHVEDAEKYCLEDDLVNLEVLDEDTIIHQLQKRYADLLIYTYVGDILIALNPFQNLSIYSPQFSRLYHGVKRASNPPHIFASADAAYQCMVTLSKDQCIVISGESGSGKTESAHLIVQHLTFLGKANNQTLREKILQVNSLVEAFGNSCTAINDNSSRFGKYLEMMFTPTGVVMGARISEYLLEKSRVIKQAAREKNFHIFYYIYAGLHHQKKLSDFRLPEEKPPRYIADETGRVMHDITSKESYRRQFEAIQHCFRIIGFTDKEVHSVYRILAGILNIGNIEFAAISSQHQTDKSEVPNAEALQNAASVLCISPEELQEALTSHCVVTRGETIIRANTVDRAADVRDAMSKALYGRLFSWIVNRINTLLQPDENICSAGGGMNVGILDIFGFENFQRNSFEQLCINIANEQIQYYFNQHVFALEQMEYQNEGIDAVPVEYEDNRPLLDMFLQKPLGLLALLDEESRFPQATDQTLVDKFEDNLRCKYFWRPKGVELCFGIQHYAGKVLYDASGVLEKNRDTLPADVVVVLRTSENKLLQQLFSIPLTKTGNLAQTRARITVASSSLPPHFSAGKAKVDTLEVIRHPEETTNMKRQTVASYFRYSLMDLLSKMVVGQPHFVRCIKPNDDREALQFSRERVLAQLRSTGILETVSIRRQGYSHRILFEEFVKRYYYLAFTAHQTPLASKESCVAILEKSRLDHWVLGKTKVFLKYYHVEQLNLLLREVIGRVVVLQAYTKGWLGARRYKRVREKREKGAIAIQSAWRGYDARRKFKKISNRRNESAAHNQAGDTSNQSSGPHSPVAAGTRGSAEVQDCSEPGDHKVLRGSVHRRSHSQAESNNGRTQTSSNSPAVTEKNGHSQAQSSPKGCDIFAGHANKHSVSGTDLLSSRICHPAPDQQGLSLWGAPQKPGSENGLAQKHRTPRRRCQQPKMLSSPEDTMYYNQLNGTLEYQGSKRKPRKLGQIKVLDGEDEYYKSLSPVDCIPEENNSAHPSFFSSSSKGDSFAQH

[14] = biological target: Epithelial discoidin domain-containing receptor 1 (Homo sapiens, UniProt Q08345); assay: Selectivity interaction (KinomeScan (DiscoverX)) EUB0000710a DDR1; conditions: at 1 µM
[15] = system: Epidermal growth factor receptor (Homo sapiens), P00533 [L861Q]; assay: Selectivity interaction (KinomeScan (DiscoverX)) EUB0000710a EGFR; conditions: at 1 µM
[16] = biological target: Serine/threonine-protein kinase TNNI3K (Homo sapiens) (UniProt Q59H18); assay: Selectivity interaction (KinomeScan (DiscoverX)) EUB0000710a TNNI3K; conditions: at 1 µM
[17] = system: Phosphatidylinositol 4,5-bisphosphate 3-kinase catalytic subunit alpha isoform (Homo sapiens), P42336 [Q546K]; assay: Selectivity interaction (KinomeScan (DiscoverX)) EUB0000710a PIK3CA; conditions: at 1 µM
Chain of Phosphatidylinositol 4,5-bisphosphate 3-kinase catalytic subunit alpha isoform (Homo sapiens), P42336 [Q546K] (P42336 whole entry Q546K, canonical isoform): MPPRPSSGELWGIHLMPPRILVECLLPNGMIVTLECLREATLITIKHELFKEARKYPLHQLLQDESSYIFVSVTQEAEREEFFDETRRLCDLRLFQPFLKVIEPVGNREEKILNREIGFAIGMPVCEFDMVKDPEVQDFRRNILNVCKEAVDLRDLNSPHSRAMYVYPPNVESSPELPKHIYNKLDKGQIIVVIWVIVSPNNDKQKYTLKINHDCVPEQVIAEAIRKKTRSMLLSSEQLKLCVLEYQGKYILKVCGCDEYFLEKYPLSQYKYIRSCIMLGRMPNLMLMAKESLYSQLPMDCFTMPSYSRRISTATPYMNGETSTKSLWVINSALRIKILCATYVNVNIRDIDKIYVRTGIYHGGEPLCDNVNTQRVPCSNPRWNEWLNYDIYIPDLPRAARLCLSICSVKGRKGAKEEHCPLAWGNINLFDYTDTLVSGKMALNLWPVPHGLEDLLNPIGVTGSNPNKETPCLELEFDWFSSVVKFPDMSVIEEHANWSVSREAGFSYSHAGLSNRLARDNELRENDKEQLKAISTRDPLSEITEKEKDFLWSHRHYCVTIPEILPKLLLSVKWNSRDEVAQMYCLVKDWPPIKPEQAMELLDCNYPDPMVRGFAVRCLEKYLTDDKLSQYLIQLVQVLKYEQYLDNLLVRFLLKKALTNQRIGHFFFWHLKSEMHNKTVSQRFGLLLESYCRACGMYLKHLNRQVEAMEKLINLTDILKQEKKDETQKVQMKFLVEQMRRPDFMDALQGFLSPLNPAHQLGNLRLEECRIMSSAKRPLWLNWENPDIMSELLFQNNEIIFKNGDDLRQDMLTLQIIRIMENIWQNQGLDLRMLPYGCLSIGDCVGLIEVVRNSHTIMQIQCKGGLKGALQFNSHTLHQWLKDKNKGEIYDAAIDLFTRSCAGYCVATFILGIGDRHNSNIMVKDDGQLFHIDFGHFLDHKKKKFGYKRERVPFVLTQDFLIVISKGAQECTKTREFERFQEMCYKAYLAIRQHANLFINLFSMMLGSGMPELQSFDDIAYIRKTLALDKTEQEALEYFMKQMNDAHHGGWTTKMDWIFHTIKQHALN

Chain of Epidermal growth factor receptor (Homo sapiens), P00533 [L861Q] (P00533 whole entry L861Q): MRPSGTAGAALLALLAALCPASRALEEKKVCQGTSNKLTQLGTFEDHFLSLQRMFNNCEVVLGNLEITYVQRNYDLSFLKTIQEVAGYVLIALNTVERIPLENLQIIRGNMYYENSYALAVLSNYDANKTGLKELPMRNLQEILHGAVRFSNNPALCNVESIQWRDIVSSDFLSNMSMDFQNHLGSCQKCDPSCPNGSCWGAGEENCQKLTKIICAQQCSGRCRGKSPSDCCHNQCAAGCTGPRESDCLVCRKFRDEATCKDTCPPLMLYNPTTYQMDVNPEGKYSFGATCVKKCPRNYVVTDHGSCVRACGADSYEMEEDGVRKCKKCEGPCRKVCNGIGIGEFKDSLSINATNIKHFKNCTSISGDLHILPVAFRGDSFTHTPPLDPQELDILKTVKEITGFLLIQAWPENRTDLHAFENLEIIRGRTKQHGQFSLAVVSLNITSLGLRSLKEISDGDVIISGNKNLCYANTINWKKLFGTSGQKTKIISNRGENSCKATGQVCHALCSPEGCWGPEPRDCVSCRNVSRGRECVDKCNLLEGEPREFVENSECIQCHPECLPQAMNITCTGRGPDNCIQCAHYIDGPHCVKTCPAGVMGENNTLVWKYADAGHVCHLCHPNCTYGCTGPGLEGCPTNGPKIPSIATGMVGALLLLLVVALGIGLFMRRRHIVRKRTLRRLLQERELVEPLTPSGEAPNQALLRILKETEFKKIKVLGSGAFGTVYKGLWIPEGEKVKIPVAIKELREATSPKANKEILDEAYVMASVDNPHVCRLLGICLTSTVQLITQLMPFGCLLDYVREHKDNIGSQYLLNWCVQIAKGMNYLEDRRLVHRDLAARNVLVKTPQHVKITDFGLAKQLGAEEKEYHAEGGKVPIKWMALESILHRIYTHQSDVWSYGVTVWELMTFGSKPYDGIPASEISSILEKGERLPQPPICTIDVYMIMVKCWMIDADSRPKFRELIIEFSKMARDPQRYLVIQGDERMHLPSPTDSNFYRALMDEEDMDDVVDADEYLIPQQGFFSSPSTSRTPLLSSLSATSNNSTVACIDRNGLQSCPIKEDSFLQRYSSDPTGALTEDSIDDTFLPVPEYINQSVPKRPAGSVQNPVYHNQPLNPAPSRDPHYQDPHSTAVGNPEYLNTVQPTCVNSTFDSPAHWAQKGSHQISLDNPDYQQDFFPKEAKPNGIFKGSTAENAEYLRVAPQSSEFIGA
Chain of High affinity nerve growth factor receptor (P04629 33-796 limits assumed): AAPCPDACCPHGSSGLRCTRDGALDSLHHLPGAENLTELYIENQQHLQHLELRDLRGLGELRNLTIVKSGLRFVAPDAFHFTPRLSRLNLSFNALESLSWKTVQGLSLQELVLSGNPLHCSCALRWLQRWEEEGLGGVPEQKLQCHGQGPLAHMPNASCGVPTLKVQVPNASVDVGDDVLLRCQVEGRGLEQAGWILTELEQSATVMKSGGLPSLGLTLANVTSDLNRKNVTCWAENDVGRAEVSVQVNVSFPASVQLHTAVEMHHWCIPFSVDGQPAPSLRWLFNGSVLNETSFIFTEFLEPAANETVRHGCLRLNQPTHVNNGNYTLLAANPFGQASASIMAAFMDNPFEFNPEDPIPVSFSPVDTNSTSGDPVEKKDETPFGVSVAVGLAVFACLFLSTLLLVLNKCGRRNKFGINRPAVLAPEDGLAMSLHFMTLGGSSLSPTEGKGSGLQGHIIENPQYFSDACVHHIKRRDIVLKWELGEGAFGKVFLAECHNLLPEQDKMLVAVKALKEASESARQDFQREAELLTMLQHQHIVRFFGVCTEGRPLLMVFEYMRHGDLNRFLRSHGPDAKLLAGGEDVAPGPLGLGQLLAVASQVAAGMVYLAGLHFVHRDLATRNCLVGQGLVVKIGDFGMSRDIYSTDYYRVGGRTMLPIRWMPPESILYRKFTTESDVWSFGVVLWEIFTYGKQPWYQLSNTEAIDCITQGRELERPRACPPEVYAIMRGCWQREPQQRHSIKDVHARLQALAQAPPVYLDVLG
Chain of Serine/threonine-protein kinase TNNI3K (Homo sapiens) (Q59H18 whole entry, canonical isoform): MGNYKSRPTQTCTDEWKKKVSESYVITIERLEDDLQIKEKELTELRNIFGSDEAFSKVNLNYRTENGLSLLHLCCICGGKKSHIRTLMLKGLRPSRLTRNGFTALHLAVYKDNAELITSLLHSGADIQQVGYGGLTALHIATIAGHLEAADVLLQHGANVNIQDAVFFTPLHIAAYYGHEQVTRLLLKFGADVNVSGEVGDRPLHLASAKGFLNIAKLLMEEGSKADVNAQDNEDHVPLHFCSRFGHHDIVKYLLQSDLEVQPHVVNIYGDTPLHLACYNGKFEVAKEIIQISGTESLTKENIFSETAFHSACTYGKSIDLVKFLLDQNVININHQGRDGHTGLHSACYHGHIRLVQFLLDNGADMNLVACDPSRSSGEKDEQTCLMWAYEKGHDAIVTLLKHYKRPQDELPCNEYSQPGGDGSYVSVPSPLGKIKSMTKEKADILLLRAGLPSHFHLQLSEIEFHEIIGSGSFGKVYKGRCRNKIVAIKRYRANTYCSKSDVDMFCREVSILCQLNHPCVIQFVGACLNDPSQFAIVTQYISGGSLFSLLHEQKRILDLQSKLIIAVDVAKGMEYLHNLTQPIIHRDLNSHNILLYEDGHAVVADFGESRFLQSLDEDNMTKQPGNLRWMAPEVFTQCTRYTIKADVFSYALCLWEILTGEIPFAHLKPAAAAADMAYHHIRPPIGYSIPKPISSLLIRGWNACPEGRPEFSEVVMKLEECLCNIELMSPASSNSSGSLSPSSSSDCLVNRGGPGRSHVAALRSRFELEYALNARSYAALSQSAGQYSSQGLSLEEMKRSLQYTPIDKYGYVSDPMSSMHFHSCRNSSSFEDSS
Chain of Protein kinase C epsilon type (Homo sapiens) (Q02156 whole entry): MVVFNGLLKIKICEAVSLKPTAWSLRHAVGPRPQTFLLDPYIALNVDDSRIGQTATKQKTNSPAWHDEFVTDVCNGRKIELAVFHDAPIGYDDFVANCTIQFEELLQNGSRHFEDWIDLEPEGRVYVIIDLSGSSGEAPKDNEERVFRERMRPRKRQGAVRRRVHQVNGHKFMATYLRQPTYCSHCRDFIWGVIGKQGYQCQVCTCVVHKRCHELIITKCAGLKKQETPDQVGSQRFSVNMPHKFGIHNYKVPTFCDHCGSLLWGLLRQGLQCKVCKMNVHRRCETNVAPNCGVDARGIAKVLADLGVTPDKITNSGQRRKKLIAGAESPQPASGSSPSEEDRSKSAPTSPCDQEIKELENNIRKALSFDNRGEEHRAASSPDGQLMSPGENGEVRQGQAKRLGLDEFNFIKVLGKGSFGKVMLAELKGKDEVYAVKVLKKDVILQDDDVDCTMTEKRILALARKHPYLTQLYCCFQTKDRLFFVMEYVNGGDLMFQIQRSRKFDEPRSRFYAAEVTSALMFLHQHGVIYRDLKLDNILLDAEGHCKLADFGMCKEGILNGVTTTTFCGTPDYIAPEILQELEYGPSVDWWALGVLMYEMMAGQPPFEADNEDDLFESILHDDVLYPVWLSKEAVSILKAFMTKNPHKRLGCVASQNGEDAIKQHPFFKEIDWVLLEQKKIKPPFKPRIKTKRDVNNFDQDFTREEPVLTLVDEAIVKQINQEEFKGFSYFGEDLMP
Chain of 5-hydroxytryptamine receptor 2B (P41595 whole entry): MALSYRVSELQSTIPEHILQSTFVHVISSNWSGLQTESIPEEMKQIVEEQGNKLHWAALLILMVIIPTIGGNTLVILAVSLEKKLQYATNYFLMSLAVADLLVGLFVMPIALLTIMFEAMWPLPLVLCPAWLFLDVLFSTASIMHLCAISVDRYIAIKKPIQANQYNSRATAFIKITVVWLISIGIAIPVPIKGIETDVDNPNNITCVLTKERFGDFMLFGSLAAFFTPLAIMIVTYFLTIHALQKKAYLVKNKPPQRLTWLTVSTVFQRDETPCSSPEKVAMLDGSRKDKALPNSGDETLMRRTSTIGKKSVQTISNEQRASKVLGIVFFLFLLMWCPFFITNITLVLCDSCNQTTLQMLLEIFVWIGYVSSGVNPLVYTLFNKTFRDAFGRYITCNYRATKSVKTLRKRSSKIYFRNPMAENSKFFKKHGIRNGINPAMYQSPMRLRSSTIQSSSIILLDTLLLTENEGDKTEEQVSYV

Compound: CNC(=O)Nc1ccc2c(c1)[C@@]1(CC2)OC(=O)N(CC(=O)N(Cc2ccc(F)cc2)[C@@H](C)C(F)(F)F)C1=O [A-486]
- Ki [1]: 2580 nM
- % of control [2]: 0%
- % of control [3]: 41%
- % of control [4]: 28%

Compound: CNC(=O)Nc1ccc2c(c1)CC[C@@]21OC(=O)N(CC(=O)N(Cc2ccc(F)cc2)[C@@H](C)C(F)(F)F)C1=O [A-485]
- % of inhibition [5]: 94%
- % of inhibition [6]: 99%
- Ki [7]: 1110 nM
- % of control [8]: 49%
- % of control [9]: 47%
- % of control [10]: 22%

Compound: Cc1cnc(-c2cc(Cl)ccc2F)cc1-n1c(=O)n(CC(N)=O)c2ccccc21 [Al11]
- Ki [11]: 1880 nM
- % of control [12]: 54%
- % of control [13]: 49%
- % of control [14]: 47%
- % of control [15]: 39.5%
- % of control [16]: 51%
- % of control [17]: 41%
